Patent publication US20240115654A1, “INTRAVENOUS ADMINISTRATION OF ENGINEERED ANTIMICROBIAL AMPHIPHILIC PEPTIDES” (priority 2021, published 2024)
Read-outs that look alike come from different tables or passages of the source. Peptide text beside a SMILES is read from it.

Description: All subjects who met eligibility criteria were confined to the clinical research unit from […] through Day 3. At admission, physical examination, vital signs, 12 lead ECG and weight were obtained, medical and medication history were updated if necessary, safety blood tests (hematology and chemistry), urinalysis, urine drug screen and an alcohol breath test were repeated and a urine pregnancy test was done for women of childbearing potential.
At each dose level, there were 2 sentinel subjects, (1 active, 1 placebo), who were dosed at least 48 hours in advance of the other subjects in their respective group. Following review of safety data, including physical examination, vital signs, and review of adverse events from the first 2 subjects, enrolment in the cohort continued.
A 12-lead ECG was performed on Day 1, within 60 minutes of infusion start (in triplicate), mid-way through the infusion, at the completion of the infusion, 30 minutes after completion of the infusion and at various timepoints following the end of the infusion.
Vital signs were recorded within 60 minutes pre-dose, at the mid-point of the infusion and post dose vitals were assessed at completion of the infusion, 0.5, 1, 2, 3, 4, 6, 9, 12, 24 and 48 hours post dose, after at least 3 minutes of rest in supine position.
Subjects returned to the study center 7 days after dosing, for the termination visit. A full physical examination, vital signs and weight were obtained, concomitant medications were updated if necessary, safety blood specimens (haematology and chemistry, PT and aPTT) and urine were collected for urinalysis and urine drug screening. A serum pregnancy test was done for women of childbearing potential and a 12-lead ECG was performed.
In this study dose limiting toxicity (DLT) was defined as any drug related ≥Grade 3 AEs occurring despite optimal therapeutic interventions (which included but were not limited to allergic/hypersensitivity reactions, dermatological reactions/infusion site reactions, haematological toxicities such as neutropenia, thrombocytopenia and anaemia and clinical chemistry abnormalities) experienced up to Day 7 (Termination Visit).
(§1) All subjects who received any amount of study drug were included in the safety analysis (Safety population).
The study was a double blinded, randomized, placebo-controlled study. The placebo administered was 0.9% sodium chloride.
On Day 1 (day of dosing), subjects were randomly assigned either peptide IV or Placebo IV. At each dose level, there were 2 sentinel subjects, (1 active, 1 placebo), who were dosed at least 48 hours in advance of the other subjects in their respective group. Following review of safety data, including physical examination, vital signs, and review of adverse events from the first 2 subjects, enrolment in the cohort continued. All subjects who met eligibility criteria were confined to the clinical research unit from Day −2 through Day 3. At admission, physical examination, vital signs, 12 lead ECG and weight were obtained, medical and medication history were updated if necessary, safety blood tests (hematology and chemistry), urinalysis, urine drug screen and an alcohol breath test were repeated and a urine pregnancy test was done for women of childbearing potential.
as §1

[1] = Cohort 5: 1 mg/kg IV 4-hr infusion (N = 6)
[2] = Cohorts 1-5, comparing dose level, infusion time, placebo and active

CC(C)[C@H](NC(=O)[C@H](Cc1c[nH]c2ccccc12)NC(=O)[C@H](CCCNC(=N)N)NC(=O)[C@H](CCCNC(=N)N)NC(=O)[C@@H](NC(=O)[C@@H](NC(=O)[C@H](CCCNC(=N)N)NC(=O)[C@@H](NC(=O)[C@@H](NC(=O)[C@H](CCCNC(=N)N)NC(=O)[C@H](CCCNC(=N)N)NC(=O)[C@H](Cc1c[nH]c2ccccc12)NC(=O)[C@@H](NC(=O)[C@H](CCCNC(=N)N)NC(=O)[C@H](CCCNC(=N)N)NC(=O)[C@@H](NC(=O)[C@H](CCCNC(=N)N)NC(=O)[C@H](CCCNC(=N)N)NC(=O)[C@@H](NC(=O)[C@H](Cc1c[nH]c2ccccc12)NC(=O)[C@H](CCCNC(=N)N)NC(=O)[C@@H](N)CCCNC(=N)N)C(C)C)C(C)C)C(C)C)C(C)C)C(C)C)C(C)C)C(C)C)C(=O)N[C@@H](CCCNC(=N)N)C(=O)N[C@@H](CCCNC(=N)N)C(N)=O [SEQ ID NO: 1] (H-RRWVRRVRRVWRRVVRVVRRWVRR-NH2)
Treatment-related TEAE: Blood and Lymphatic System Disorders, participants n (%) [1]: 0 | Treatment-related TEAE: Constipation, participants n (%) [1]: 0 | Treatment-related TEAE: Diarrhea, participants n (%) [1]: 0 | Treatment-related TEAE: Dizziness, occurrences m [1]: 1 | Treatment-related TEAE: Dizziness, participants n (%) [1]: 1 (16.7%) | Treatment-related TEAE: Feeling hot, participants n (%) [1]: 0 | Treatment-related TEAE: Gastrointestinal Disorders, occurrences m [1]: 1 | Treatment-related TEAE: Gastrointestinal Disorders, participants n (%) [1]: 1 (16.7%) | Treatment-related TEAE: General Disorders and Administration Site Conditions, occurrences m [1]: 7 | Treatment-related TEAE: General Disorders and Administration Site Conditions, participants n (%) [1]: 6 (100%) | Treatment-related TEAE: Headache, occurrences m [1]: 1 | Treatment-related TEAE: Headache, participants n (%) [1]: 1 (16.7%) | Treatment-related TEAE: Infusion related reaction, participants n (%) [1]: 0 | Treatment-related TEAE: Infusion site discomfort, occurrences m [1]: 1 | Treatment-related TEAE: Infusion site discomfort, participants n (%) [1]: 1 (16.7%) | Treatment-related TEAE: Infusion site pain, occurrences m [1]: 3 | Treatment-related TEAE: Infusion site pain, participants n (%) [1]: 3 (50.0%) | Treatment-related TEAE: Infusion site reaction, occurrences m [1]: 2 | Treatment-related TEAE: Infusion site reaction, participants n (%) [1]: 2 (33.3%) | Treatment-related TEAE: Infusion site swelling, occurrences m [1]: 1 | Treatment-related TEAE: Infusion site swelling, participants n (%) [1]: 1 (16.7%) | Treatment-related TEAE: Injury, Poisoning, and Procedural Complications, participants n (%) [1]: 0 | Treatment-related TEAE: Macule, occurrences m [1]: 1 | Treatment-related TEAE: Macule, participants n (%) [1]: 1 (16.7%) | Treatment-related TEAE: Musculoskeletal and Connective Tissue Disorders, participants n (%) [1]: 0 | Treatment-related TEAE: Myalgia, participants n (%) [1]: 0 | Treatment-related TEAE: Nervous system disorders, occurrences m [1]: 2 | Treatment-related TEAE: Nervous system disorders, participants n (%) [1]: 2 (33.3%) | Treatment-related TEAE: Oropharyngeal pain, participants n (%) [1]: 0 | Treatment-related TEAE: Orthostatic hypotension, participants n (%) [1]: 0 | Treatment-related TEAE: Phlebitis, participants n (%) [1]: 0 | Treatment-related TEAE: Respiratory, Thoracic, and Mediastinal disorders, participants n (%) [1]: 0 | Treatment-related TEAE: Skin and Subcutaneous Tissue Disorders, occurrences m [1]: 1 | Treatment-related TEAE: Skin and Subcutaneous Tissue Disorders, participants n (%) [1]: 1 (16.7%) | Treatment-related TEAE: Thrombocytopenia, participants n (%) [1]: 0 | Treatment-related TEAE: Vascular Disorders, participants n (%) [1]: 0 | Treatment-related TEAE: Vessel puncture site erythema, participants n (%) [1]: 0 | Treatment-related TEAE: Vessel puncture site pain, participants n (%) [1]: 0 | Treatment-related TEAE: Vomiting, occurrences m [1]: 1 | Treatment-related TEAE: Vomiting, participants n (%) [1]: 1 (16.7%) | adverse events judged Grade 3 or higher (Cohorts 1-4): none | changes in laboratory parameters (Cohorts 1-4): No clinically significant changes | related IRRs, events (Cohorts 1-4): 13 | serious adverse events (SAEs) or deaths (Cohorts 1-4): no reports | subjects with related IRRs (Cohorts 1-4): 7 | subjects with study drug infusion interrupted (Cohorts 1-4): 3 | subjects with at least one TEAE (Cohorts 1-4 (0.05-0.5 mg/kg IV), 29 subjects in the SEQ ID NO: 1 arm): 25 (86.2%) subjects (%) | TEAEs in SOC General disorders and administration site conditions (Cohorts 1-4, 29 subjects): 24.1% | TEAEs in SOC Injury, poisoning, and procedural complication (Cohorts 1-4, 29 subjects): 48.3% | Vascular access site pain (Cohorts 1-4, 29 subjects): 34.5% | subjects reporting Grade 2 TEAEs (Cohorts 1-4, 29 subjects): 13.8% | subjects with treatment related-TEAEs (Cohorts 1-4, 29 subjects): 24.1% | total TEAEs reported (Cohorts 1-4, 29 subjects in the SEQ ID NO: 1 arm): 52 | AEs judged Grade 3 or higher (Cohorts 1-5): none | serious TEAEs (Cohorts 1-5): no reports | treatment-emergent DLTs (Cohorts 1-5): no reports | TEAEs in SOC General disorders and administration site conditions (Cohorts 1-5, 35 participants): 37.1% | TEAEs in SOC Injury, Poisoning, and Procedural Complications (Cohorts 1-5, 35 participants): 51.4% | participants with at least 1 TEAE deemed related to treatment (Cohorts 1-5, 35 participants): 37.1% | participants with at least 1 TEAE leading to study drug discontinuation (Cohorts 1-5, 35 participants): 5.7% | total TEAE events (Cohorts 1-5, 35 participants): 72 | Vascular access site pain (Cohorts 1-5, 35 participants (n=10)): 28.6% | Holter monitoring and electrocardiograms (Cohorts 1-5, by treatment assignment or dose level): no trends of concern | hematology and coagulation [2]: no clinically significant patterns of change | serum chemistry [2]: no clinically significant patterns of change | participants with study drug infusion interrupted (Cohorts 1-5, of 47 participants, all in active treatment group): 8 (17.0%) participants (%) | Participants Reporting at least One Related TEAE, % (Pooled SEQ ID NO: 1 (N = 29)): 24.1% | Related TEAE Blood and lymphatic system disorders, n participants (Pooled SEQ ID NO: 1 (N = 29)): 0
